# Test results as given in PubChem BioAssay (NCI).
#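 All cell lines were grown in 96-well plates and treated with compound for 48 hours. GI50 = concentration required for 50% inhibition of growth. The concentration for full growth arrest is given as TGI.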
# Columns and labels:
# Assay in all cases: DTP human tumour cell line panel, 48 h
# 786-0 renal = tested on: 786-0 renal
# A498 renal = tested on: A498 renal
# A549 NSCLC = tested on: A549 NSCLC
# ACHN renal = tested on: ACHN renal
# BT-549 breast = tested on: BT-549 breast
# CAKI-1 renal = tested on: CAKI-1 renal
# CCRF-CEM leukemia = tested on: CCRF-CEM leukemia
# COLO 205 colon = tested on: COLO 205 colon
# DU-145 prostate = tested on: DU-145 prostate
# EKVX NSCLC = tested on: EKVX NSCLC
# HCC-2998 colon = tested on: HCC-2998 colon
# HCT-116 colon = tested on: HCT-116 colon
# HCT-15 colon = tested on: HCT-15 colon
# HL-60(TB) leukemia = tested on: HL-60(TB) leukemia
# HOP-62 NSCLC = tested on: HOP-62 NSCLC
# HOP-92 NSCLC = tested on: HOP-92 NSCLC
# HS 578T breast = tested on: HS 578T breast
# HT29 colon = tested on: HT29 colon
# IGROV1 ovarian = tested on: IGROV1 ovarian
# K-562 leukemia = tested on: K-562 leukemia
# KM12 colon = tested on: KM12 colon
# LOX IMVI melanoma = tested on: LOX IMVI melanoma
# M14 melanoma = tested on: M14 melanoma
# MALME-3M melanoma = tested on: MALME-3M melanoma
# MCF7 breast = tested on: MCF7 breast
# MDA-MB-231 breast = tested on: MDA-MB-231 breast
# MDA-MB-435 = tested on: MDA-MB-435
# MOLT-4 leukemia = tested on: MOLT-4 leukemia
# NCI-H226 lung = tested on: NCI-H226 lung
# NCI-H23 lung = tested on: NCI-H23 lung
# NCI-H460 lung = tested on: NCI-H460 lung
# NCI-H522 lung = tested on: NCI-H522 lung
# NCI/ADR-RES ovarian = tested on: NCI/ADR-RES ovarian
# OVCAR-3 ovarian = tested on: OVCAR-3 ovarian
# OVCAR-4 ovarian = tested on: OVCAR-4 ovarian
# OVCAR-5 ovarian = tested on: OVCAR-5 ovarian
# OVCAR-8 ovarian = tested on: OVCAR-8 ovarian
# PC-3 prostate = tested on: PC-3 prostate
# SF-268 CNS = tested on: SF-268 CNS
# SF-295 CNS = tested on: SF-295 CNS
# SF-539 CNS = tested on: SF-539 CNS
# SK-MEL-2 melanoma = tested on: SK-MEL-2 melanoma
# SK-MEL-28 melanoma = tested on: SK-MEL-28 melanoma
# SK-MEL-5 melanoma = tested on: SK-MEL-5 melanoma
# SK-OV-3 ovarian = tested on: SK-OV-3 ovarian
# SN12C renal = tested on: SN12C renal
# SNB-19 CNS = tested on: SNB-19 CNS
# SNB-75 CNS = tested on: SNB-75 CNS
# SR leukemia = tested on: SR leukemia
# SW-620 colon = tested on: SW-620 colon
# T-47D breast = tested on: T-47D breast
# TK-10 renal = tested on: TK-10 renal
# U251 CNS = tested on: U251 CNS
# UACC-257 melanoma = tested on: UACC-257 melanoma
# UACC-62 melanoma = tested on: UACC-62 melanoma
# UO-31 renal = tested on: UO-31 renal
smiles,measurement,setting,value
COc1ccccc1N1CCN(CC(O)COc2c(Br)c(Br)c(Br)c3c2OC(C)(C)C3)CC1 (configuration not stated),GI50,786-0 renal,12.8 µM
same,TGI,786-0 renal,29.6 µM
same,GI50,A498 renal,20.4 µM
same,TGI,A498 renal,47.9 µM
same,GI50,A549 NSCLC,16.6 µM
same,TGI,A549 NSCLC,96.5 µM
same,GI50,ACHN renal,14.2 µM
same,TGI,ACHN renal,> 100 µM
same,GI50,BT-549 breast,12.5 µM
same,TGI,BT-549 breast,34.1 µM
same,GI50,CAKI-1 renal,4.56 µM
same,TGI,CAKI-1 renal,12.3 µM
same,GI50,CCRF-CEM leukemia,92.2 µM
same,TGI,CCRF-CEM leukemia,> 100 µM
same,GI50,COLO 205 colon,12.4 µM
same,TGI,COLO 205 colon,30.4 µM
same,GI50,DU-145 prostate,16.5 µM
same,TGI,DU-145 prostate,37.3 µM
same,GI50,EKVX NSCLC,8.85 µM
same,TGI,EKVX NSCLC,> 100 µM
same,GI50,HCC-2998 colon,4.57 µM
same,TGI,HCC-2998 colon,16.5 µM
same,GI50,HCT-116 colon,4.45 µM
same,TGI,HCT-116 colon,20.1 µM
same,GI50,HCT-15 colon,4.72 µM
same,TGI,HCT-15 colon,24.8 µM
same,GI50,HL-60(TB) leukemia,5.05 µM
same,TGI,HL-60(TB) leukemia,> 100 µM
same,GI50,HOP-62 NSCLC,12.6 µM
same,TGI,HOP-62 NSCLC,30.8 µM
same,GI50,HOP-92 NSCLC,6.15 µM
same,TGI,HOP-92 NSCLC,24.1 µM
same,GI50,HS 578T breast,15 µM
same,TGI,HS 578T breast,42 µM
same,GI50,HT29 colon,4.1 µM
same,TGI,HT29 colon,14 µM
same,GI50,IGROV1 ovarian,12.8 µM
same,TGI,IGROV1 ovarian,38.9 µM
same,GI50,K-562 leukemia,4.7 µM
same,TGI,K-562 leukemia,> 100 µM
same,GI50,KM12 colon,13.7 µM
same,TGI,KM12 colon,56.1 µM
same,GI50,LOX IMVI melanoma,6.38 µM
same,TGI,LOX IMVI melanoma,18.9 µM
same,GI50,M14 melanoma,13.2 µM
same,TGI,M14 melanoma,37.5 µM
same,GI50,MALME-3M melanoma,16.1 µM
same,TGI,MALME-3M melanoma,37.5 µM
same,GI50,MCF7 breast,25.5 µM
same,TGI,MCF7 breast,> 100 µM
same,GI50,MDA-MB-231 breast,12.9 µM
same,TGI,MDA-MB-231 breast,32.1 µM
same,GI50,MDA-MB-435,16.2 µM
same,TGI,MDA-MB-435,55.1 µM
same,GI50,MOLT-4 leukemia,4.25 µM
same,TGI,MOLT-4 leukemia,> 100 µM
same,GI50,NCI-H226 lung,13.2 µM
same,TGI,NCI-H226 lung,64.5 µM
same,GI50,NCI-H23 lung,9.53 µM
same,TGI,NCI-H23 lung,38.4 µM
same,GI50,NCI-H460 lung,8.78 µM
same,TGI,NCI-H460 lung,54.4 µM
same,GI50,NCI-H522 lung,12.3 µM
same,TGI,NCI-H522 lung,27.9 µM
same,GI50,NCI/ADR-RES ovarian,11.2 µM
same,TGI,NCI/ADR-RES ovarian,> 100 µM
same,GI50,OVCAR-3 ovarian,14.4 µM
same,TGI,OVCAR-3 ovarian,34.6 µM
same,GI50,OVCAR-4 ovarian,8.93 µM
same,TGI,OVCAR-4 ovarian,> 100 µM
same,GI50,OVCAR-5 ovarian,19.4 µM
same,TGI,OVCAR-5 ovarian,> 100 µM
same,GI50,OVCAR-8 ovarian,31.5 µM
same,TGI,OVCAR-8 ovarian,94.4 µM
same,GI50,PC-3 prostate,6.53 µM
same,TGI,PC-3 prostate,43.4 µM
same,GI50,SF-268 CNS,33.3 µM
same,TGI,SF-268 CNS,> 100 µM
same,GI50,SF-295 CNS,4.68 µM
same,TGI,SF-295 CNS,17.3 µM
same,GI50,SF-539 CNS,13.9 µM
same,TGI,SF-539 CNS,32.1 µM
same,GI50,SK-MEL-2 melanoma,5.32 µM
same,TGI,SK-MEL-2 melanoma,20.9 µM
same,GI50,SK-MEL-28 melanoma,17.3 µM
same,TGI,SK-MEL-28 melanoma,36.8 µM
same,GI50,SK-MEL-5 melanoma,4.91 µM
same,TGI,SK-MEL-5 melanoma,19.1 µM
same,GI50,SK-OV-3 ovarian,49.4 µM
same,TGI,SK-OV-3 ovarian,> 100 µM
same,GI50,SN12C renal,14.6 µM
same,TGI,SN12C renal,32.9 µM
same,GI50,SNB-19 CNS,17.9 µM
same,TGI,SNB-19 CNS,47.3 µM
same,GI50,SNB-75 CNS,18.1 µM
same,TGI,SNB-75 CNS,94.1 µM
same,GI50,SR leukemia,7.83 µM
same,TGI,SR leukemia,> 100 µM
same,GI50,SW-620 colon,9.6 µM
same,TGI,SW-620 colon,25.7 µM
same,GI50,T-47D breast,15.8 µM
same,TGI,T-47D breast,> 100 µM
same,GI50,TK-10 renal,15.4 µM
same,TGI,TK-10 renal,46.7 µM
same,GI50,U251 CNS,10.6 µM
same,TGI,U251 CNS,24.2 µM
same,GI50,UACC-257 melanoma,23.4 µM
same,TGI,UACC-257 melanoma,> 100 µM
same,GI50,UACC-62 melanoma,12 µM
same,TGI,UACC-62 melanoma,30.6 µM
same,GI50,UO-31 renal,9.66 µM
same,TGI,UO-31 renal,27.2 µM
